Among the data in ChEMBL document CHEMBL1144380, “Furanyl-1,3-thiazol-2-yl and benzoxazol-5-yl acetic acid derivatives: novel classes of heparanase inhibitor” (Bioorg Med Chem Lett, 2005) are IC50 values, retold here.

Chain of Cytochrome P450 2C9 (P11712 whole entry): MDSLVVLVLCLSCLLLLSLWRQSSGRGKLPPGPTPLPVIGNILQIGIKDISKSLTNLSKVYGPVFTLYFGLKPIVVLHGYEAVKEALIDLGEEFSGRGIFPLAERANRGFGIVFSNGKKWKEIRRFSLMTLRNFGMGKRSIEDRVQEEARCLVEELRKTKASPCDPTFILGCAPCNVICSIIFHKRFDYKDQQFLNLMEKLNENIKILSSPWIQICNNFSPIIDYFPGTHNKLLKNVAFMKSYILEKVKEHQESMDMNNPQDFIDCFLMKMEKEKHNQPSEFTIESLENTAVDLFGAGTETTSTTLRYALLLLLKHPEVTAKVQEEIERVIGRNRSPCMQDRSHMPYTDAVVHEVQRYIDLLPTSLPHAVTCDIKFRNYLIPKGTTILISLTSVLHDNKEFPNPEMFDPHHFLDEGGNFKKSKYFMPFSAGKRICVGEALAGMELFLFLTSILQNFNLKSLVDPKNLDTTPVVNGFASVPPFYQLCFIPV

System in one assay: not listed separately
Kind of assay: In vitro anti-angiogenic activity in Human endothelial cells. To be noted: endothelial cell. It is filed as functional, cell-based.
Broadly, the IC50 is the midpoint of a concentration-inhibition curve. High values mean lower potency, low ones higher potency. As for `O=C(O)Cc1nc(-c2ccc(-c3ccc(NC(=O)c4ccc(Cl)cc4)cc3Cl)o2)cs1`, the concentration for half-maximal inhibition (IC50) came out at 2 µM. Same read-out and setting: to `O=C(O)Cc1nc(-c2ccc(-c3ccc(NC(=O)c4ccc(C(F)(F)F)cc4)cc3Cl)o2)cs1` belongs 7.5 µM; to `O=C(O)Cc1nc(-c2ccc(-c3ccc(NC(=O)/C=C/c4ccc(OC(F)(F)F)cc4)cc3Cl)o2)cs1`, 20 µM. For `N#Cc1cccc(C(=O)Nc2ccc(-c3ccc(-c4csc(CC(=O)O)n4)o3)c(Cl)c2)c1`, the IC50 is above 20 µM. `O=C(O)Cc1ccc2oc(-c3ccc(NC(=O)/C=C/c4cccc(Br)c4)c(F)c3)nc2c1` came in with an IC50 of 1 µM. Same read-out and setting: for `O=C(O)Cc1ccc2oc(-c3ccc(NC(=O)/C=C/c4ccc(Cl)c(Cl)c4)c(F)c3)nc2c1` the value was 0.2 µM; for `N#Cc1ccc(/C=C/C(=O)Nc2ccc(-c3nc4cc(CC(=O)O)ccc4o3)cc2F)cc1`, 1 µM; for `O=C(O)Cc1ccc2oc(-c3ccc(NC(=O)/C=C/c4cccc(Cl)c4)c(F)c3)nc2c1`, 7.5 µM. On the same count and under the same terms, for `O=C(O)Cc1nc(-c2ccc(-c3ccc(NC(=O)/C=C/c4ccc(Cl)cc4Cl)cc3Cl)o2)cs1` the value was above 20 µM; for `O=C(O)Cc1ccc2oc(-c3ccc(NC(=O)/C=C/c4cccc(Br)c4)cc3Cl)nc2c1`, 20 µM.

The compound `O=C(O)Cc1ccc2oc(-c3ccc(NC(=O)/C=C/c4ccc(Cl)cc4Cl)cc3Cl)nc2c1` showed a concentration for half-maximal inhibition (IC50) of 5 µM. `O=C(O)Cc1ccc2oc(-c3ccc(NC(=O)/C=C/c4ccc(Br)cc4)c(F)c3)nc2c1`: it took 1 µM to reach half-maximal inhibition (IC50). Compared with the last compound, the IC50 is about 5-fold lower. Compound `O=C(O)Cc1ccc2oc(-c3ccc(NC(=O)/C=C/c4ccc(Br)cc4)cc3Cl)nc2c1` gave an IC50 of 7.5 µM. Still for that read-out and setting: for `O=C(O)Cc1nc(-c2ccc(-c3ccc(NC(=O)c4ccc(OC(F)(F)F)cc4)cc3Cl)o2)cs1` the value was 0.5 µM; for `O=C(O)Cc1nc(-c2ccc(-c3ccc(NC(=O)c4ccc(Cl)cc4Cl)cc3Cl)o2)cs1`, 0.5 µM; for `O=C(O)Cc1ccc2oc(-c3ccc(NC(=O)/C=C/c4ccc(Cl)cc4Cl)c(F)c3)nc2c1`, above 20 µM. Still for that read-out and setting: to `O=C(O)Cc1nc(-c2ccc(-c3ccc(NC(=O)/C=C/c4ccc(Br)cc4)cc3Cl)o2)cs1` belongs 1 µM; to `O=C(O)Cc1ccc2oc(-c3ccc(NC(=O)/C=C/c4cccc(Br)c4)cc3)nc2c1`, above 20 µM; to `O=C(O)Cc1nc(-c2ccc(-c3ccc(NC(=O)/C=C/c4ccccc4)cc3Cl)o2)cs1`, 15 µM. Still for that read-out and setting: for `O=C(O)Cc1ccc2oc(-c3ccc(NC(=O)/C=C/c4ccc(F)c(Cl)c4)c(F)c3)nc2c1` the value was 1 µM; for `O=C(O)Cc1ccc2oc(-c3ccc(NC(=O)/C=C/c4ccc(Br)cc4)cc3)nc2c1`, 20 µM. As for `COc1ccc(/C=C/C(=O)Nc2ccc(-c3ccc(-c4csc(CC(=O)O)n4)o3)c(Cl)c2)cc1`, it took 5 µM to reach half-maximal inhibition (IC50). Same read-out and setting: for `O=C(O)Cc1ccc2oc(-c3ccc(NC(=O)/C=C/c4cccc(Cl)c4F)c(F)c3)nc2c1` the value was 5 µM.

Another assay has as its target Cytochrome P450 2C9 (Homo sapiens, UniProt P11712). Description: In vitro inhibitory concentration against Cytochrome P450 2C9. It is filed as ADME.
Conditions: not given
`O=C(O)Cc1ccc2oc(-c3ccc(NC(=O)/C=C/c4ccc(Br)cc4)c(F)c3)nc2c1` came in with a concentration for half-maximal inhibition (IC50) above 30 µM.

A further assay deals with T1, Heparanase (Homo sapiens, UniProt Q9Y251).
T1 sequence (Q9Y251 whole entry): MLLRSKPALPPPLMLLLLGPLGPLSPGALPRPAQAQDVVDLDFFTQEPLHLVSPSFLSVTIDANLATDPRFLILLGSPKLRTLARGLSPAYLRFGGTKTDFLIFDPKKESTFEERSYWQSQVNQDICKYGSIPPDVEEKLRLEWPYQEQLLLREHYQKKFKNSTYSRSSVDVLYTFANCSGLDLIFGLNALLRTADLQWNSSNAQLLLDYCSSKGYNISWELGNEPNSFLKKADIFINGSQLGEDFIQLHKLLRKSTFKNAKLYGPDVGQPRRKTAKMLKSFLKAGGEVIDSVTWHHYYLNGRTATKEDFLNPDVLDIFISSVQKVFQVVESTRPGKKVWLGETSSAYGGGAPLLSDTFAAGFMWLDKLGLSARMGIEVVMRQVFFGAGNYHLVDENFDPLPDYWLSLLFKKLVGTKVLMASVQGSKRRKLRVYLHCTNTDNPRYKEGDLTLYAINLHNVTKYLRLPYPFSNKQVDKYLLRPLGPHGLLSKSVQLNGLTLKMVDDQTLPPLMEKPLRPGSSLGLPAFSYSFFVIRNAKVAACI
Description: In vitro inhibitory concentration against human Heparanase.
Conditions: not given
`O=C(O)Cc1ccc2oc(-c3ccc(NC(=O)/C=C/c4ccccc4)cc3Cl)nc2c1` displayed a concentration for half-maximal inhibition (IC50) above 30 µM. The same measure, in the same setting: to `O=C(O)Cc1nc(-c2ccc(-c3ccc(NC(=O)c4ccccc4)cc3Cl)o2)cs1` belongs above 30 µM.

For the compound `O=C(O)Cc1ccc2oc(-c3ccc(NC(=O)c4ccc(Br)cc4)cc3Cl)nc2c1`, the 50% inhibitory concentration (IC50) is above 10 µM. Still for that read-out and setting: for `COc1ccccc1NC(=O)/C=C/c1ccc(-c2nc3cc(CC(=O)O)ccc3o2)cc1` the value was above 10 µM; for `COc1ccc(NC(=O)/C=C/c2ccc(-c3nc4cc(CC(=O)O)ccc4o3)cc2)cc1OC`, above 10 µM.
